The values that follow come from article PMC10477861, “Efficient Mining of Anticancer Peptides from Gut Metagenome” (Advanced Science, 2023).

Common to all, as to conditions: 25 µM pACP, 24 h, maintenance medium 1% FBS, ratio of viability to vehicle (PBS), at least three technical repetitions
For one test, the system named is HT29. Put plainly: MTT primary screening of anticancer activity, HT29. The format is cell-based, Human. Put shortly: (§1)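 Single-dose screen: 25 µM peptide (final), 24 h, 1% FBS maintenance medium, cells ~60% confluent; MTT viability read-out.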
For the next test, the system named is Caco2. Put plainly: MTT primary screening of anticancer activity, Caco2. The format is cell-based, Human. The method, boiled down: as §1
The next test relates to HCT116. Nature of the test: MTT primary screening of anticancer activity, HCT116. The format is cell-based, Human. The method, boiled down:
as §1

In another test the test system is CT26. Nature of the test: MTT primary screening of anticancer activity, CT26. The format is cell-based, Murine. The method, boiled down: as §1
Another test deals with MDA-MB-231. Put plainly: MTT primary screening of anticancer activity, MDA-MB-231. It is filed as cell-based. The method, boiled down: as §1
The subject of the next test is MDA-MB-436. Put plainly: MTT primary screening of anticancer activity, MDA-MB-436. It is filed as cell-based. The method, boiled down:
as §1

The subject of the next test is MDA-MB-453. Nature of the test: MTT primary screening of anticancer activity, MDA-MB-453. It is filed as cell-based. The method, boiled down:
as §1

In another test the test system is MDA-MB-468. Put plainly: MTT primary screening of anticancer activity, MDA-MB-468. The format is cell-based. The method, boiled down: as §1
In another test the test system is SK-BR-3. Nature of the test: MTT primary screening of anticancer activity, SK-BR-3. The format is cell-based. Put shortly: as §1
In another test the test system is BT474. Nature of the test: MTT primary screening of anticancer activity, BT474. The format is cell-based. The method, boiled down: as §1
A further test deals with T47D. Nature of the test: MTT primary screening of anticancer activity, T47D. The format is cell-based. The method, boiled down:
as §1

For another test, the system named is EFM192A. Nature of the test: MTT primary screening of anticancer activity, EFM192A. The format is cell-based. Put shortly:
as §1

The subject of a further test is B16. Put plainly: MTT primary screening of anticancer activity, B16. The format is cell-based, Mouse. The method, boiled down:
as §1

The test system of a further test is MCF7. Nature of the test: MTT primary screening of anticancer activity, MCF7. The format is cell-based. The method, boiled down: as §1
The next test deals with Hela. Put plainly: MTT primary screening of anticancer activity, Hela. It is filed as cell-based, Human. Put shortly:
as §1

The subject of another test is LCC. Nature of the test: MTT primary screening of anticancer activity, LCC. It is filed as cell-based. Put shortly:
as §1

Regarding “YSYGYVISSCKKAGGGYAIRYVALHYVQGTKEGGGRQ [pACP2344]”, the “Survival rate of cancer cells in primary screening” value (shortened to “Survival rate of cancer cells”) in the test with HT29, with Caco2, in the test on HCT116, with CT26, in the test with MDA-MB-231 and in the test with MDA-MB-436 was 1.00 in each case. In addition, the “Survival rate of cancer cells” value in the test with MDA-MB-453 came to 1.00; with MDA-MB-468, 1.00; in the test with SK-BR-3, 1.00; in the test with BT474, 0.68; in the test on T47D it was 1.00; with EFM192A, 1.00. In addition, the “Survival rate of cancer cells” value in the test with B16 came out at 0.76; with MCF7, 1.00; with Hela, 1.00; in the test on LCC, 1.00.
